Experimental data reported in patent US7919508B2, “3-piperidinylisochroman-5-ols as dopamine agonists” (Aventis Pharmaceuticals Inc., priority 2004, dated 2011).
pEC50, pKi: −log10 of the molar value. Structures can show the parent of a compound that is named as a salt.

Key:
[1] = biological target: T1, human dopamine D1 receptor (Homo sapiens, UniProt P21728); assay: [3H]-SCH-23390 binding to cloned human dopamine D1 receptors (CHO cell membranes); conditions: competitive binding, [3H]-SCH-23390, cloned human D1 in CHO membranes; read-out: D1 affinity Ki
T1 construct: A 1.4 Kb Hind III to Xho I fragment was subcloned into the vector pMMLV; expressed in transfected cells; host or cells: CHO cells, clone CHO-D1M#9 (plasmid pHD1MMLV), membranes

D1 receptor = biological target: T2, D1 receptor (Homo sapiens, UniProt P21728); assay: D1 Activation Adenylyl Cyclase Assay (cAMP FlashPlate, D1 transfected CHO cell line); format: cell-based; conditions: agonist activity at the D1 receptor, adenylate cyclase assay, D1 transfected CHO cell line; read-out: D1 EC50
T2 construct: expressed in transfected cells; host or cells: D1 transfected CHO cell line
Method: D1 Activation Adenylyl Cyclase Assay
Purpose: To measure D1-agonist activity compounds using an Adenylyl Cyclase Activation Flash Plate Assay from NEN.
Buffers: Activation and Detection buffers are provided from NEN: Catalog # SMP004A.
Maintenance of D1 transfected CHO cell line: • 1. Cells are grown in a 150 cc flask in an incubator at 37° C. with 5% CO2 for 2-3 days (4 maximum) until confluent. • 2. Aspirate off old media (Cells adhere to the plastic flask), wash 2× with sterile PBS. • 3. Add ˜5 mL of Trypsin EDTA (enough to cover bottom of the flask) for 5 min. at RT. • 4. Stop digestion with 15 mL of Media (Ham's F12 plus 10% FBS, 1% P/S, 400 μg/mL G418). • Bang flask on counter to release them from the flask. • 5. Add 2 mL of this to 30 mL of Media in a fresh flask. Return to incubator. Preparation of Cells for Assay: • 1. Loosen the cells with 5 mL Vercine (EDTA)/flask for 10 minutes in incubator. • 2. Add 20 mL of Serum-free media/flask. Transfer to 50-mL Falcon tube. • 3. Spin down cells at 1000 RPM for 5 minutes at 4° C. • 4. Aspirate off old media and resuspend in 5 mL of Serum-free media/plate to be done. • 5. Dilute 10 μL 1/10 in 90 μL Trypan Blue solution and count with a hemocytometer. • Count (live cells only) all four areas and average them. • Count X 10^5 equals cells/mL (including accounting for dilution in Trypan). • 6. Dilute to 50,000 cells/50 μL (1,000,000 cells/mL) in Serum-free media. • 7. Put 50 μL/well in Rows 3-12 of a cAMP FlashPlate. • 8. Put in incubator at 37° C. for 2-4 hours, to allow cells to recover and attach. Adenylyl Cyclase Activation Assay: • 1. Prepare the cAMP standards: • Add 130 μL/well of stimulation buffer to each row of a separate 96-well “standard” plate, 2 columns/plate. • Dilute stock cAMP standard 1/5 with stimulation buffer (final concentration is 1000 pmol/mL). Add 130 μL of this to row A. • Make 1/2 serial dilutions by adding 130 μL from each well to the next (A-G), mixing between each. • Final concentrations are: • A: 500, B: 250, C: 125, D: 62.5, E: 31.25, F: 15.6, G: 7.8, H: 0 pmol/mL. • Place 100 μL from each row from 2 columns of the standard plate into columns 1 and 2 of each “reaction” plate. • 2. Prepare the negative and positive control in the “reaction” plate: • Column 3, rows A-D, add 100 μL stimulation buffer (negative control). • Column 3, rows E-H, add 90 μL of stimulation buffer plus 10 μL of 200 μM APO (positive control, […]). (10 μL 10 mM APO, plus 490 μL stim. buffer=1/50 dilution.) • 3. Prepare the agonist compound dilutions in the “compound” plate: • Add 80 μL of stimulation buffer to row A (One column for each compound), and 90 μL of stimulation buffer to rows B—H. • Add 20 μL of 10 mM of each compound to appropriate row A. • Make 1/10 serial dilutions by adding 10 μL from each well to the next (A-H), mixing between each. • 4. […]. Prepare Detection/Stop buffer by adding 90 μL/plate of cAMP-^125I to 10 mL/plate plus 6 mL (for dead volume) of detection buffer. Steps 6-8 performed with the Multi-Mek. • 6. Add 50 μL to each well of the FlashPlate with CHO cells set up earlier. • 7. Incubate at RT for 8 minutes. • 8. Stop reaction by adding 100 μL of detection/stop buffer to each well. • 9. Cover with plastic film and incubate at RT for 16-24 hours (don't wait more than 24 hours). • 10. Count in a Packard Top-Count. Calculations: • 1. Raw signals generated by cAMP standard wells, without cells, are averaged at each cAMP concentration and converted to % B/Bo by dividing the raw signal at each cAMP concentration by the raw signal with no cAMP added. • 2. These values are used to generate a standard curve by plotting cAMP concentration versus % B/Bo. • 3. Raw data for each compound at each concentration is also converted to % B/B. by the same method. • 4. These values are then converted to pmol cAMP/mL using the standard curve. • 5. These cAMP values are then averaged across the three replicates for each compound concentration. • 6. […]

[2] = biological target: human dopamine D2Long (D2L) receptors (Homo sapiens, UniProt P14416)
Sequence of human dopamine D2Long (D2L) receptors (P14416 whole entry): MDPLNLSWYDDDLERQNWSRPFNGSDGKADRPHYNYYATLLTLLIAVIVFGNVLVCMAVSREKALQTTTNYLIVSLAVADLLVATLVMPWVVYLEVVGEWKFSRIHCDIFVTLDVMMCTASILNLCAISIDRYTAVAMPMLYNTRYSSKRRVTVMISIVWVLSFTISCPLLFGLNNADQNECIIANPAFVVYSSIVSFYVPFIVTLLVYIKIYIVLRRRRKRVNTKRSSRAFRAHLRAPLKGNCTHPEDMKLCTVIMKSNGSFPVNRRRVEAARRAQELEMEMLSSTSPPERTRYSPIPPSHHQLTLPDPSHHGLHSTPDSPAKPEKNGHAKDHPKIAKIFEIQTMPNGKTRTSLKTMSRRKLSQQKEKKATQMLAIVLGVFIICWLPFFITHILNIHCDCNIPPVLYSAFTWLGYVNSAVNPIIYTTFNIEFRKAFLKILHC
Method: [N-Methyl-^3H]Spiroperidol Binding to Cloned Human Dopamine D2Long Receptors
This assay measures the in vitro activity of drugs on cloned human dopamine D2Long (D2L) receptors and predicts the direct dopamine-displacing properties of neuropsychiatric, cardiovascular and renal agents at human dopamine D2 receptors.
Cells were maintained in Ham's F12+10% Fetal Bovine Serum+Penicillin/Streptomycin (100 U/ml/100 μg/ml)+G418 (400 μg/ml) medium and were split using Trypsin-EDTA (1 ml/plate, room temperature for ˜2 min. or until cells have lifted off plates). • 2. […] Plates are incubated at 37° C.+5% CO2 for ˜3 days or until cells were confluent.
Cells are harvested by mechanical scraping, washed using PBS collected in 250 ml Corning polypropylene centrifuge tubes, spun down and resuspended in dH2O (final volume per harvest approximately 60 ml). Protein determination is made according to the method of Lowry (Biorad DC Assay Kit). Following the determination of the protein concentration, the protein is diluted into distilled water with 10% DMSO to the appropriate volume based on expression levels (Bmax). The concentrated protein is aliquoted into 1.5 ml screw top eppendorf tubes and placed into a −80° C. freezer.
Assay Requirement: 1 cryovial per two 96 well plates
0.5M Tris Wash Buffer, pH 7.7 • a) 44.4 g Tris HCl • 26.5 g Tris Base • q.s. to 1 Liter (0.5 M Tris buffer, pH 7.7 at 37° C.) • b) make a 1:10 dilution in distilled H2O (0.05 M. Tris buffer, pH 7.7) • 2. Tris Buffer containing physiological salts • a) Stock buffer • NaCl 7.014 g • KCl 0.372 g • CaCl2 0.222 g • MgCl2 0.204 g • q.s. To 100 ml with 0.5 M. Tris Buffer • b) Dilute 1:10 in distilled H2O • This yields 0.05 M. Tris HCl, pH 7.7, containing NaCl (120 mM), KCl (5 mM), CaCl2 (2 mM) and MgCl2 (1 mM) • Optional: add 0.1% ascorbic acid and check pH (in assays with compounds that may oxidize. • c) 1.0% polyethyleneimine stock in 0.5M Tris (reagent 1.a) • Dilute 1:10 in distilled H2O Binding Assay • 750 μl Tissue • 150 μl [^3H]NMSP • 100 μl vehicle (for total binding) or 30 μM (−)
eticlopride (for nonspecific binding) or appropriate drug concentration.
The 96-Well Packard Unifilters GF/B are incubated for >1 h at 25° C. in 0.1% polyethylenimine. The cold tissue is added last and mixed on a orbital shaker for a few seconds and is then incubated at 37° C. for 30 min in a shaking water bath. The assay is stopped by rapid filtration through Packard Unifilter plates. The filter membranes are then washed with 15 ml of ice-cold 0.05 M Tris buffer. The filters are then dried (˜15 min. under a heat lamp or incubated for 15 min. in a 60° C. oven) and a bottom seal is applied. Then 40 μl of Packard Microscint 20 scintillation cocktail are added and a permanent topseal (Type P) is applied and heat sealed. The plates are placed in a Packard Topcount.
Specific binding is defined as the difference between total binding and the binding in the presence of 3 μM S-(−)-eticlopride. Total binding is approximately 10% of the total added ligand. […] The percent inhibition at each drug concentration is the mean of duplicate determinations.

T2 sequence (P21728 whole entry): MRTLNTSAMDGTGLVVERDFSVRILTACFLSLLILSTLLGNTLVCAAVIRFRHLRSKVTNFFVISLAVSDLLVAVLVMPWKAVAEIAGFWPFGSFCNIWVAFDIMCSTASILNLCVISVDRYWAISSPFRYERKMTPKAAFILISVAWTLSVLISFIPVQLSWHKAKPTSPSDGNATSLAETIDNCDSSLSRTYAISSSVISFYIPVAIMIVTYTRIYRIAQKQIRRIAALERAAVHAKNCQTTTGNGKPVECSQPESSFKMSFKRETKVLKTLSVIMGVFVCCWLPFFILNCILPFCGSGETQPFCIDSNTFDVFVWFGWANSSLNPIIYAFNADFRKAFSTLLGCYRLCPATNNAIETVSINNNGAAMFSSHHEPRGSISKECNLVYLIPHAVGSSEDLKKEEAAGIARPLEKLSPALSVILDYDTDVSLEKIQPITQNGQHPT
T1 sequence (P21728 whole entry, the tested form may be a part): as the sequence (P21728 whole entry) above

Structure (SMILES)	pKi [1]	pEC50 (D1 receptor)	pKi [2]
Cc1ccc2c(c1O)C[C@@H](C1CCN(CCC(C)NC(=O)c3ccc(Cl)cc3)CC1)O[C@H]2CN (stereo partly drawn) [Example 13, N-{3-[4-((1R,3S)-1-Aminomethyl-5-hydroxy-6-methyl-isochroman-3-yl)-piperidin-1-yl]-1-methyl-propyl}-4-chloro-benzamide dihydrochloride]	6.89	7.52	6.44
Cc1ccc2c(c1O)C[C@@H](C1CCN(CCC(C)NC(=O)c3ccc(C(F)(F)F)cc3)CC1)O[C@H]2CN (stereo partly drawn) [Example 16, N-{3-[4-((1R,3S)-1-Aminomethyl-5-hydroxy-6-methyl-isochroman-3-yl)-piperidin-1-yl]-1-methyl-propyl}-4-trifluoromethyl-benzamide dihydrochloride]	6.83	7.25	6.42
Cc1ccc2c(c1O)C[C@@H](C1CCN(CCC(C)NC(=O)c3ccc(Cl)cc3Cl)CC1)O[C@H]2CN (stereo partly drawn) [Example 17, N-{3-[4-((1R,3S)-1-Aminomethyl-5-hydroxy-6-methyl-isochroman-3-yl)-piperidin-1-yl]-1-methyl-propyl}-2,4-dichloro-benzamide dihydrochloride]	6.86	7.74	≤ 4.00
Cc1ccc2c(c1O)C[C@@H](C1CCN(CCC(C)NC(=O)c3ccc4ccccc4c3)CC1)O[C@H]2CN (stereo partly drawn) [Example 19, Naphthalene-2-carboxylic acid {3-[4-((1R,3S)-1-aminomethyl-5-hydroxy-6-methyl-isochroman-3-yl)-piperidin-1-yl]-1-methyl-propyl}-amide dihydrochloride]	6.80	8.21	6.51
Cc1ccc2c(c1O)C[C@@H](C1CCN(CCC(C)NC(=O)c3cc4ccccc4s3)CC1)O[C@H]2CN (stereo partly drawn) [Example 20, Benzo[b]thiophene-2-carboxylic acid {3-[4-((1R,3S)-1-aminomethyl-5-hydroxy-6-methyl-isochroman-3-yl)-piperidin-1-yl]-1-methyl-propyl}-amide dihydrochloride]	7.28	7.21	6.58
Cc1ccc2c(c1O)C[C@@H](C1CCN(CCC(C)NC(=O)c3ccccc3)CC1)O[C@H]2CN (stereo partly drawn) [Example 21, N-{3-[4-((1R,3S)-1-Aminomethyl-5-hydroxy-6-methyl-isochroman-3-yl)-piperidin-1-yl]-1-methyl-propyl}-benzamide dihydrochloride]	6.92	7.85	≤ 4.00
Cc1ccc2c(c1O)C[C@@H](C1CCN(CCC(C)NC(=O)c3ccc(F)cc3)CC1)O[C@H]2CN (stereo partly drawn) [Example 22, N-{3-[4-((1R,3S)-1-Aminomethyl-5-hydroxy-6-methyl-isochroman-3-yl)-piperidin-1-yl]-1-methyl-propyl}-4-fluoro-benzamide dihydrochloride]	6.94	7.62	6.25
Cc1ccc2c(c1O)C[C@@H](C1CCN(CCC(C)NC(=O)c3cccs3)CC1)O[C@H]2CN (stereo partly drawn) [Example 25, Thiophene-2-carboxylic acid {3-[4-((1R,3S)-1-aminomethyl-5-hydroxy-6-methyl-isochroman-3-yl)-piperidin-1-yl]-1-methyl-propyl}-amide dihydrochloride]	7.25	7.27	6.66
Cc1ccc2c(c1O)C[C@@H](C1CCN(Cc3ccc(F)cc3)CC1)O[C@H]2CN [Example 26, (1R,3S)-1-Aminomethyl-3-[1-(4-fluoro-benzyl)-piperidin-4-yl]-6-methyl-isochroman-5-ol dihydrobromide]	7.48	7.96	≤ 5.00
Cc1ccc2c(c1O)C[C@@H](C1CCN(CC(c3ccccc3)c3ccccc3)CC1)O[C@H]2CN [Example 28, (1R,3S)-1-Aminomethyl-3-[1-(2,2-diphenyl-ethyl)-piperidin-4-yl]-6-methyl-isochroman-5-ol dihydrobromide]	7.09	6.88	6.74
Cc1ccc2c(c1O)C[C@@H](C1CCN(CC(C)c3ccccc3)CC1)O[C@H]2CN (stereo partly drawn) [Example 29, (1R,3S)-1-Aminomethyl-3-[1-(2-phenyl-propyl)-piperidin-4-yl]-6-methyl-isochroman-5-ol dihydrobromide]	7.19	7.40	≤ 5.00
Cc1ccc2c(c1O)C[C@@H](C1CCN(C(C)Cc3ccccc3)CC1)O[C@H]2CN (stereo partly drawn) [Example 30, (1R,3S)-1-Aminomethyl-6-methyl-3-[1-(1-methyl-2-phenyl-ethyl)-piperidin-4-yl]-isochroman-5-ol dihydrobromide]	7.26	7.22	≤ 5.00
COc1cccc(CN2CCC([C@@H]3Cc4c(ccc(C)c4O)[C@H](CN)O3)CC2)c1 [Example 31, (1R,3S)-1-Aminomethyl-3-[1-(3-methoxy-benzyl)-piperidin-4-yl]-6-methyl-isochroman-5-ol dihydrochloride]	7.92	7.89	6.24
Cc1ccc2c(c1O)C[C@@H](C1CCN(C3Cc4ccccc4C3)CC1)O[C@H]2CN [Example 32, (1R,3S)-1-Aminomethyl-3-(1-indan-2-yl-piperidin-4-yl)-6-methyl-isochroman-5-ol dihydrobromide]	7.66	7.92	6.90
Cc1ccc2c(c1O)C[C@@H](C1CCN(Cc3ccccc3)CC1)O[C@H]2CN1CCCC1 [Example 178, (1R,3S)-3-(1-Benzyl-piperidin-4-yl)-6-methyl-1-pyrrolidin-1-ylmethyl-isochroman-5-ol]		≤ 5.00	6.74
CNC[C@@H]1O[C@H](C2CCN(Cc3ccc(C(F)(F)F)cc3)CC2)Cc2c1ccc(C)c2O [Example 181, (1R,3S)-6-Methyl-1-methylaminomethyl-3-[1-(4-trifluoromethyl-benzyl)-piperidin-4-yl]-isochroman-5-ol hydrochloride]	7.68	6.66	
CCNC[C@@H]1O[C@H](C2CCN(Cc3ccc(C(F)(F)F)cc3)CC2)Cc2c1ccc(C)c2O [Example 182, (1R,3S)-1-Ethylaminomethyl-6-methyl-3-[1-(4-trifluoromethyl-benzyl)-piperidin-4-yl]-isochroman-5-ol]	6.59	5.89	
CCN(C)C[C@@H]1O[C@H](C2CCN(Cc3ccc(C(F)(F)F)cc3)CC2)Cc2c1ccc(C)c2O [Example 183, (1R,3S)-1-[(Ethyl-methyl-amino)-methyl]-6-methyl-3-[1-(4-trifluoromethyl-benzyl)-piperidin-4-yl]-isochroman-5-ol]	6.91	5.15	
